Results taken from US20090232909A1, “Method for determining physiological effects of hemoglobin” (priority 1999, published 2009).

Biological target: T1, oxyHb (Homo sapiens, UniProt P68871+P69905)
T1 construct: purchased Apex Bioscience (Research Triangle Park, N.C.)
Test: Nitrosyl content of normoxic oxyHb after exposure to NO, photolysis-chemiluminescence
Format: biochemical
Procedure: Nitroso/nitrosyl derivatives of Hb were measured using a photolysis-chemiluminescence technique [6-fold excess HgCl2 over protein was added to displace S-nitrosothiol (SNO) (Stamler, J. S., et al., Science, 276:2034-2037, 1997)]. Samples were kept on ice for a period of 5 minutes to 2 hours before analyses. MetHb was monitored by UV-visible spectroscopy as the difference absorption above the linear baseline (600-700 nm), and EPR (below).
(A) Nitrosyl content of oxyHb (10 mM phosphate 100 μM DTPA, pH 7.4) after exposure to 1.2 μM NO, as measured by photolysis-chemiluminescence (Stamler, J. S., et al., Science, 276:2034-2037, 1997). Nitrosyl yield increases as a function of Hb concentration (P<0.05). Solid symbols, absolute yield of NO bound to Hb (FeNO plus SNO); open symbols, percentage of NO added. Data shown are the average of 7 to 19 experiments±SE. (B) Standard difference spectra of metHb (solid line), deoxyHb (dotted line), and iron nitrosylHb (dashed line) vs. oxyHb. (C) Difference spectra generated from the exposure of NO to normoxic (≈99% oxygen saturation) Hb. NO was added (in 10 aliquots totaling 2.2 μM) to 33 μM Hb in 100 mM phosphate (solid line) or 10 mM phosphate (dotted line) or 10 mM phosphate plus 0.05% borate (dashed line). […] Specifically, spectra in C were fitted, by a least-squares process, to either the simple competition model or the cooperativity model without a mass balance constraint. Cooperativity is present if add increases above that reported in the literature, as a function of oxygen tension.
(A) SOD increases the yield of NO bound to Hb. The experiments in FIG. 3A were repeated in the absence (solid line; 1.2 μM NO) or presence (dashed line; 1.5 μM NO) of 1, 190 units/ml of SOD, which enhances the yield of nitrosyl species to approximately 100% of the NO added. Similar nitrosyl yields were obtained by using stroma-free Hb (25 μM), which is enriched in endogenous SOD (open circle). Data shown are the average of five to nine experiments±SE. (B) EPR spectrum of a DNIC formed by exposure of oxyHb (≈99% sat; 3.93 mM) to NO (36 μM). (C)S-nitrosoHb and iron nitrosylHb formed by exposure of oxyHb (=99% sat., 48 μM) to NO (1.2 μM). SNO (hatched bar) and FeNO (solid bar) were measured by photolysis-chemiluminescence (Stamler, J. S., et al., Science, 276:2034-2037, 1997). Data shown are the average of 12 experiments±SE. (D) Measurement of intraerythrocytic S-nitrosoHb and iron nitrosylHb formed by exposure of oxygenated RBCs (mean [Hb], 25 μM) to 0.3 μM NO. Isolation of Hb and measurements were as previously described (Stamler, J. S., et al., Science, 276:2034-2037, 1997). Data are the mean of 12 experiments±SE.

## [N]=O [NO, nitric oxide]
1.2 μM NO added to 48 μM oxyHb
  nitrosyl yield: approximately 500 nM
  share of nitrosyl yield that is SNO: ≈ 80%
1.2 μM NO, ≈99% O2 saturation, 10 mM phosphate
  nitrosyl yield relative to the [Hb]: 3 to 0.6%
1.2 μM NO, ≈99% O2 saturation, 10 mM phosphate, increasing [Hb]
  maximum yield of nitrosyl species: approximately 50 % of NO added
Heme vacancies only ≈1%
  nitrosyl yields under normoxic conditions: ≤ 6 % of Hb
